These compounds were tested against Substance-P receptor (Homo sapiens, UniProt P25103) (assay: Compound was tested for the displacement of […] Substance P from hNK1 receptor in CHO cells).
Assay type: cell-based

Sequence of Substance-P receptor (P25103 whole entry): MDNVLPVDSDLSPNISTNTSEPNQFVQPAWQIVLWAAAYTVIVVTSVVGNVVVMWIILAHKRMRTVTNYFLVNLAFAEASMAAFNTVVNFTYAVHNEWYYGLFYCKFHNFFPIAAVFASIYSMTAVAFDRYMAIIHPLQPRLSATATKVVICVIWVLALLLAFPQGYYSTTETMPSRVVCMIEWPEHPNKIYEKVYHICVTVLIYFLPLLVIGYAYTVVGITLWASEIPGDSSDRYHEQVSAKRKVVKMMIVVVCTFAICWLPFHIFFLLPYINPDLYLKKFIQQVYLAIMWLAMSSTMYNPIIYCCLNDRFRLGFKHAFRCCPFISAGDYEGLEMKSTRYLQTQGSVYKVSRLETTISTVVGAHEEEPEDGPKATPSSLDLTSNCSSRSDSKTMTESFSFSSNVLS

Row | SMILES | IC50 [nM]
1 | FC(F)(F)c1cc(CO[C@H]2CCCN[C@@H]2c2ccccc2)cc(C(F)(F)F)c1 | 300
2 | FC(F)(F)c1cc(CO[C@H]2CCN[C@H]2c2ccccc2)cc(C(F)(F)F)c1 (racemic) | 7
3 | FC(F)(F)c1cc(CO[C@@H]2CCCN[C@@H]2c2ccccc2)cc(C(F)(F)F)c1 (stereo in doubt; (+/-)2) | 1.4
4 | FC(F)(F)c1cc(CO[C@@H]2CCCN[C@@H]2c2ccccc2)cc(C(F)(F)F)c1 (stereo in doubt) | 350
